# Data taken from patent US6241963A, “Dopamine and serotonin transporter ligands and imaging agents” (priority 1996, dated 2001).
# Values joined by “and” are separate entries in the source; they are usually repeats but may differ in a detail not shown here. Identical values can stand only once. “Also recorded” adds a separate entry of the source. Like-named read-outs stand apart in the source and are kept apart here.
# Experiments:
# [1] = molecular target: dopamine transporters (Rattus norvegicus, UniProt P23977); type: in vivo, Male Sprague-Dawley rats; details: rats, iv
# Sequence of dopamine transporters (Rattus norvegicus, UniProt P23977) (P23977 whole entry): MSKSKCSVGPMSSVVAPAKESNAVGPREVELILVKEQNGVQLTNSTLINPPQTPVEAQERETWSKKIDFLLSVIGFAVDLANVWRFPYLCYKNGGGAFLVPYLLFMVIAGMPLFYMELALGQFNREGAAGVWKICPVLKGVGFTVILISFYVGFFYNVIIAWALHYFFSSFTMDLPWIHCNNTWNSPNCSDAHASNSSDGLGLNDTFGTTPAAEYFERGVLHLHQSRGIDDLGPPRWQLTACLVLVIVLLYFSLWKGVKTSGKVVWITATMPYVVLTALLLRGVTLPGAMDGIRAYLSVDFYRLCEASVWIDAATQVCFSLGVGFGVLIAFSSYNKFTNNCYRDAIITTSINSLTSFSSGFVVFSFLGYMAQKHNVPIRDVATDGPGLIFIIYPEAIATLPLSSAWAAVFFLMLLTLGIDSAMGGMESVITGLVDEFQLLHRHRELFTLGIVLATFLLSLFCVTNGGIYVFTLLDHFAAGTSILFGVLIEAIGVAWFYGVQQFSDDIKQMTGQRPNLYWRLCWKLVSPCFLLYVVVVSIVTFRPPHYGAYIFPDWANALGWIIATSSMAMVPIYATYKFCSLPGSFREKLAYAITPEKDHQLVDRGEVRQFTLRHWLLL
# Protocol: For dopamine transporter imaging agents, the target area of the brain is the striatum, where dopamine transporters are highly concentrated. The cerebellum region is suitable for use as the background region, because it has no dopamine transporters. The specific uptake is measured by the ratio of % dose/gram of striatum divided by % dose/gram of cerebellum (ST/CB ratio)--the higher the value, the better the specific uptake, and the more promising as a dopamine transporter imaging agent.
# (§1) Regional brain distribution in rats was obtained after an injection of 1.19a, 1.19b, 1.20a, 1.20b or 1.21. Samples from different brain regions (cortex, striatum, hippocampus, and cerebellum) were dissected, weighed and counted, and the percentage dose per gram of sample was calculated by comparing the sample counts with the count of the diluted initial dose. The uptake ratio of each region was obtained by dividing the percentage dose per gram of that region by that of the cerebellum. For blocking studies, rats were injected with either β-CIT or haloperidol (iv, 1 mg/Kg) 5 min prior to injection of 1.19a. The rats were dissected and brain tissue samples were counted as described above. The specific uptake of the compound was expressed as ratio of ST/CB (% dose/g of striatum divided by the same of cerebellum).
# (§2) The major criteria for determining the potential usefulness of in vivo dopamine transporter imaging agents are based on an animal biodistribution study. In this case, rats were used as an animal model. After an intravenous injection of the Tc-99m labeled compounds, the values of initial brain uptake (% dose/whole organ) at 2 minutes post intravenous injection are used to measure the ability to penetrate the intact blood-brain barrier. Compounds displaying higher brain uptake are the better agents (minimum requirement >0.1% dose in brain). The second criteria is the specific uptake in the striatum region of the brain, where dopamine transporters are located. The uptake value (% dose/gram) of the striatum (ST) is divided by the background area, cerebellum (CB; essentially devoid of dopamine transporter); the ratio of ST/CB is an indicator for specific uptake (minimum requirement for ST/CB >1.5). Five structurally similar tropane derivatives were examined in this biological study. (Tables 1.1 to 1.4).
# as §1, with “3.24 to 3.34.” for “1.19a, 1.19b, 1.20a, 1.20b or 1.21.”, “3.25.” for “1.19a.”, “above.” for “above. The specific uptake of the compound was expressed as ratio of ST/CB (% dose/g of striatum divided by the same of cerebellum).”
# [2] = type: in vivo, Male Sprague-Dawley rats; details: rats, iv
# Protocol: Male Sprague-Dawley rats (225-300 g) allowed free access to food and water were used for in vivo biodistribution studies. Kung, 1984, supra; Kung, 1985, supra. While under ether anesthesia, 0.2 mL of a saline solution containing 1.19a, 1.19b, 1.20a, 1.20b or 1.21 (50-100 μCi) was injected directly into the femoral vein of rats, and the rats were sacrificed by cardiac excision at various time points post-injection. The organs of interest were removed and weighed, and the radioactivity was counted with an automatic gamma counter (Packard 5000). The percentage dose per organ was calculated by a comparison of the tissue counts to suitably diluted aliquots of the injected material. Total activities of blood and muscle were calculated under the assumption that they were 7% and 40% of the total body weight, respectively.
# as §2
# Male Sprague-Dawley rats (225-300 g) that were allowed free access to food and water were used for in vivo biodistribution studies. (Kung, 1984, supra; Kung, 1985, supra). While under halothane anesthesia, 0.2 mL of a saline solution containing 3.24 to 3.34 ([…]) was injected directly into the femoral vein of rats, and they were sacrificed by cardiac excision at various time points post-injection. The organs of interest were removed and weighed, and the radioactivity was counted with an automatic gamma counter (Packard 5000). The percentage dose per organ was calculated by a comparison of the tissue counts to suitably diluted aliquots of the injected material. Total activities of blood and muscle were calculated under the assumption that they were 7% and 40% of the total body weight, respectively.
# [3] = test system: dopamine transporters; details: cited from earlier work; for Literature binding / localization / biodistribution, in words: in vivo; for Time for reaching optimal uptake ratio / equilibrium: basal ganglia versus frontal cortex
# [4] = test system: dopamine transporter; test: Blocking studies in rats (pretreatment or co-injection with competing agent); type: in vivo, Male Sprague-Dawley rats; details: 1 mg/kg iv, 5 min before tracer, rats
# Protocol: as §1
# as §1, with “3.24 to 3.34.” for “1.19a, 1.19b, 1.20a, 1.20b or 1.21.”, “3.25.” for “1.19a.”, “above.” for “above. The specific uptake of the compound was expressed as ratio of ST/CB (% dose/g of striatum divided by the same of cerebellum).”
compound,measurement,setting,value
COC(=O)C1C(c2ccc(Cl)cc2)CC2CCC1N2CCC[N+]12CC[S][99Tc-]13(=[O])[S]CC[N]3CC2 (mixture of isomers) [Compound 2.6a],"Brain uptake and specific striatal uptake, in words",[1],displayed a significant brain uptake and specific uptake to the striatum area of the rat brain
same,"Brain uptake, 2 min",[2],0.27 ± 0.02 % dose/organ
same,"Brain uptake, 30 min",[2],0.11 ± 0.02 % dose/organ
"CN1[C@H]2CC[C@@H]1[C@@H](C[N+]13CC[S][99Tc-]14(=[O])[S]CC[N]4CC3)[C@@H](c1ccc(Cl)cc1)C2 (single isomer, unassigned; peak a) [Peak A (1.19a)]","ST/CB ratio, 60 min",[1],2.72
same,"Blood uptake, 2 min",[2],1.98 ± 0.19 % dose/organ
same,"Brain uptake, 2 min",[2],0.5 % dose/organ and 0.50 ± 0.06 % dose/organ
same,"Heart uptake, 2 min",[2],1.76 ± 0.09 % dose/organ
same,"Kidney uptake, 2 min",[2],5.47 ± 1.04 % dose/organ
same,"Liver uptake, 2 min",[2],9.55 ± 2.19 % dose/organ
same,"Lung uptake, 2 min",[2],9.68 ± 0.51 % dose/organ
same,"Muscle uptake, 2 min",[2],33.61 ± 4.31 % dose/organ
same,"Skin uptake, 2 min",[2],2.73 ± 0.39 % dose/organ
same,"Spleen uptake, 2 min",[2],0.27 ± 0.04 % dose/organ
same,"Blood uptake, 60 min",[2],1.00 ± 0.15 % dose/organ
same,"Brain uptake, 60 min",[2],0.21 ± 0.01 % dose/organ
same,"Heart uptake, 60 min",[2],0.21 ± 0.00 % dose/organ
same,"Kidney uptake, 60 min",[2],2.04 ± 0.21 % dose/organ
same,"Liver uptake, 60 min",[2],17.75 ± 1.81 % dose/organ
same,"Lung uptake, 60 min",[2],3.06 ± 0.28 % dose/organ
same,"Muscle uptake, 60 min",[2],14.98 ± 0.49 % dose/organ
same,"Skin uptake, 60 min",[2],3.56 ± 0.65 % dose/organ
same,"Spleen uptake, 60 min",[2],0.46 ± 0.18 % dose/organ
"COC(=O)[C@H]1[C@@H](c2ccc(Cl)cc2)C[C@@H]2CC[C@H]1N2CCC[N+]12CC[S][99Tc-]13(=[O])[S]CC[N]3CC2 (single isomer, unassigned; peak a) [peak A of (2.6a)]","Blood uptake, 2 min",[2],2.41 ± 0.33 % dose/organ
same,"Brain uptake, 2 min",[2],0.25 ± 0.04 % dose/organ
same,"Heart uptake, 2 min",[2],0.79 ± 0.03 % dose/organ
same,"Kidney uptake, 2 min",[2],2.97 ± 0.09 % dose/organ
same,"Liver uptake, 2 min",[2],14.29 ± 2.56 % dose/organ
same,"Lung uptake, 2 min",[2],15.63 ± 2.31 % dose/organ
same,"Muscle uptake, 2 min",[2],7.78 ± 0.32 % dose/organ
same,"Skin uptake, 2 min",[2],1.59 ± 0.68 % dose/organ
same,"Spleen uptake, 2 min",[2],0.42 ± 0.10 % dose/organ
same,"Blood uptake, 30 min",[2],1.16 ± 0.06 % dose/organ
same,"Brain uptake, 30 min",[2],0.13 ± 0.02 % dose/organ
same,"Heart uptake, 30 min",[2],0.22 ± 0.02 % dose/organ
same,"Kidney uptake, 30 min",[2],1.25 ± 0.11 % dose/organ
same,"Liver uptake, 30 min",[2],20.87 ± 2.23 % dose/organ
same,"Lung uptake, 30 min",[2],9.65 ± 1.37 % dose/organ
same,"Muscle uptake, 30 min",[2],10.41 ± 1.26 % dose/organ
same,"Skin uptake, 30 min",[2],5.69 ± 0.73 % dose/organ
same,"Spleen uptake, 30 min",[2],0.42 ± 0.05 % dose/organ
"CN1[C@H]2CC[C@@H]1[C@@H](C[N+]13CC[S][99Tc-]14(=[O])[S]CC[N]4CC3)[C@@H](c1ccc(Cl)cc1)C2 (single isomer, unassigned; peak b) [peak B (1.19a)]","ST/CB ratio, 60 min",[1],3.79
same,"Blood uptake, 2 min",[2],4.02 ± 0.20 % dose/organ
same,"Brain uptake, 2 min",[2],0.28 ± 0.01 % dose/organ
same,"Heart uptake, 2 min",[2],1.28 ± 0.15 % dose/organ
same,"Kidney uptake, 2 min",[2],4.47 ± 0.69 % dose/organ
same,"Liver uptake, 2 min",[2],9.07 ± 1.66 % dose/organ
same,"Lung uptake, 2 min",[2],6.00 ± 1.11 % dose/organ
same,"Muscle uptake, 2 min",[2],41.46 ± 11.33 % dose/organ
same,"Skin uptake, 2 min",[2],3.43 ± 0.62 % dose/organ
same,"Spleen uptake, 2 min",[2],0.27 ± 0.03 % dose/organ
same,"Brain uptake, 2 min",[2]; listed as Peak B,0.28 % dose/organ
same,"Blood uptake, 60 min",[2],1.89 ± 0.21 % dose/organ
same,"Brain uptake, 60 min",[2],0.12 ± 0.02 % dose/organ
same,"Heart uptake, 60 min",[2],0.19 ± 0.06 % dose/organ
same,"Kidney uptake, 60 min",[2],1.87 ± 0.80 % dose/organ
same,"Liver uptake, 60 min",[2],18.71 ± 2.54 % dose/organ
same,"Lung uptake, 60 min",[2],1.23 ± 0.89 % dose/organ
same,"Muscle uptake, 60 min",[2],8.60 ± 2.51 % dose/organ
same,"Skin uptake, 60 min",[2],4.11 ± 0.62 % dose/organ
same,"Spleen uptake, 60 min",[2],0.41 ± 0.24 % dose/organ
"COC(=O)[C@H]1[C@@H](c2ccc(Cl)cc2)C[C@@H]2CC[C@H]1N2CCC[N+]12CC[S][99Tc-]13(=[O])[S]CC[N]3CC2 (single isomer, unassigned; peak b) [peak B of (2.6a)]","Blood uptake, 2 min",[2],3.96 ± 0.70 % dose/organ
same,"Brain uptake, 2 min",[2],0.19 ± 0.041 % dose/organ
same,"Heart uptake, 2 min",[2],0.70 ± 0.21 % dose/organ
same,"Kidney uptake, 2 min",[2],2.03 ± 0.45 % dose/organ
same,"Liver uptake, 2 min",[2],19.56 ± 3.21 % dose/organ
same,"Lung uptake, 2 min",[2],19.16 ± 2.06 % dose/organ
same,"Muscle uptake, 2 min",[2],9.92 ± 1.04 % dose/organ
same,"Skin uptake, 2 min",[2],1.25 ± 0.17 % dose/organ
same,"Spleen uptake, 2 min",[2],0.42 ± 0.10 % dose/organ
same,"Blood uptake, 30 min",[2],1.82 ± 0.43 % dose/organ
same,"Brain uptake, 30 min",[2],0.094 ± 0.026 % dose/organ
same,"Heart uptake, 30 min",[2],0.24 ± 0.08 % dose/organ
same,"Kidney uptake, 30 min",[2],1.24 ± 0.18 % dose/organ
same,"Liver uptake, 30 min",[2],28.57 ± 2.94 % dose/organ
same,"Lung uptake, 30 min",[2],12.51 ± 1.46 % dose/organ
same,"Muscle uptake, 30 min",[2],8.09 ± 1.686 % dose/organ
same,"Skin uptake, 30 min",[2],3.25 ± 0.76 % dose/organ
same,"Spleen uptake, 30 min",[2],0.67 ± 0.17 % dose/organ
"COC(=O)[C@H]1[C@@H](c2ccc(F)cc2)C[C@@H]2CC[C@H]1N2C [CFT (WIN35,428)]","Literature binding / localization / biodistribution, in words",[3],much higher binding affinity and selectivity to dopamine reuptake sites
CN1[C@H]2CC[C@@H]1[C@@H](C[N+]13CC[S][99Tc-]14(=[O])[S]CC[N]4CC3)[C@@H](c1ccc(Br)cc1)C2 (some centres unmarked) [Compound 1.20c],"Brain uptake and specific striatal uptake, in words",[1],high initial uptake and high specific retention in brain
same,"ST/CB ratio, 60 min",[1],2.82 and 2.82 ± 0.19
same,"Brain uptake, 2 min",[2],0.41 ± 0.03 % dose/organ
same,"Brain uptake, 60 min",[2],0.18 ± 0.01 % dose/organ
COC(=O)C1C(c2ccc(F)cc2)CC2CCC1N2CCCN(CC[S-])CC([O-])=NCC[S-].[O]=[99Tc+3] (centres unmarked) [Technepine],"Literature binding / localization / biodistribution, in words",[3],poor biodistribution
same,"Literature binding / localization / biodistribution, in words",[3]; listed as technepine,less favorable biological properties
COC(=O)[C@H]1[C@@H](c2ccc([123I])cc2)C[C@@H]2CC[C@H]1N2CCCF [[^123 I]-β-CIT-FP],Time for reaching optimal uptake ratio / equilibrium,[3],less than one hour
COC(=O)[C@H]1[C@@H](OC(=O)c2ccccc2)C[C@@H]2CC[C@H]1N2C [cocaine],"Literature binding / localization / biodistribution, in words",[3],largely concentrated in the basal ganglia
"O=C(CCCN1CCC(O)(c2ccc(Cl)cc2)CC1)c1ccc(F)cc1 [haloperidol, reference compound]",Effect of pretreatment on specific striatal uptake of tracer,[4],no blocking effect was observed
"COC(=O)[C@H]1[C@@H](c2ccc(I)cc2)C[C@@H]2CC[C@H]1N2C [β-CIT, N-methyl-2b-carbomethoxy-3b-(4-iodophenyl)tropane, reference compound]",Time for reaching optimal uptake ratio / equilibrium,[3],> 18 h
same,"Literature binding / localization / biodistribution, in words",[3],much higher binding affinity and selectivity to dopamine reuptake sites
same,Effect of pretreatment on specific striatal uptake of tracer,[4],could be blocked; also recorded: showed blocking of the specific uptake
same,Effect of pretreatment on specific striatal uptake of tracer,[4]; listed as RTI-55,could be blocked
